Measured values published in patent US9199983B2, “3-aryl-6-aryl-[1,2,4]triazolo[4,3-α]pyridines as inhibitors of cell proliferation and the use thereof” (priority 2010, dated 2015).
Where a name gives a salt, the structure may show the parent alone.

How the values were obtained:
[1] = system: liver cancer cell line HepG2; experiment: MTT cancer cell cytotoxicity assay, HepG2; assay type: cell-based, human; details: Homo sapiens, HepG2 cells, 48-72 h
Description: (§1) Identification of 3-(2-methoxyphenyl)-6-(4-methoxyphenyl)-[1,2,4]triazolo[4,3-a]pyridine and analogs as inhibitors of cell proliferation that were evaluated with standard MTT cancer cell cytotoxicity assay (IC50)
(§2) Human lung cancer cell line A549, breast cancer cell line T47D, liver cancer cell lines HepG2 and SMMC7721 as well as a mouse melanoma cell line B16F10 were used in the study. The cells were cultured in corresponding growth media recommended by American Type Culture Collection (ATCC) with the supplementation of penicillin G (100 U/ml)/streptomycin (100 µg/ml), and 10% fetal bovine serum (Hangzhou Sijiqing Biological Engineering Materials, Co., Ltd. China) at 37° C. in a humidified atmosphere containing 5% CO2. Cells at about 80% confluency were harvested by trypsinization. Cells were centrifuged, re-suspended in fresh growth media and counted. Corresponding numbers of cells were seeded to 96-well cell culture plates (HepG2 cell, T-47D and A549 cells at 3000 cells/well, SMMC-7721 cells at 5000 cells/well and B16F10 cells at 2000 cells/well) in a total volume of […]. Cells were incubated in CO2 incubator over night to allow the cells to attach. In next day, […] of medium containing testing (from 10 μM to 1 nM) or reference compounds was added to each well of the cells. Media without compound were used as 100% control. Cells were treated with each concentration of compounds in triplicates to ensure data accuracy. Cells were incubated with compounds in CO2 incubator for an additional 48-72 h at 37° C. After incubation, cells were removed from the CO2 incubator and […] of 5 mg/ml MTT (3-(4,5-dimethylthiazole-2-yl)-2,5-diphenyltetrazoliumbromide, Sigma) solution in PBS was added to each well. Cells were returned to CO2 incubator and incubated for additional 4 h. After the incubation, media were removed by aspiration and […] DMSO was added to each well. Plates were sealed with aluminum foil and shaked mildly on an orbital shaker for 10 min at room temperature. The absorption was measured at 550 nm with a plate reader (Varioskan Flash, Thermo Fisher Scientific) with 660 nm reading used as background control. The relative absorbance readings were calculated by subtracting readings at 660 nm from that at 550 nm. The relative absorbance was plotted again the concentrations of the testing compounds and the plots were fitted with a one-site lg(IC50) equation using Prism 5 software (GraphPad Software, Inc). The equation used in the curve fitting is as follows: relative absorbance reading=background reading+(maximal reading−brackground reading)/(1+10 ^(compound concentration-log IC50)). The background reading used in the calculation was obtained with 100% cell death using a reference anticancer drug, whereas the maximal reading was obtained in the well with no added compound. The IC50 value calculated from the equation represents the cytotoxic potency of a particular compound.

[2] = system: Human lung cancer cell line A549; experiment: MTT cancer cell cytotoxicity assay, A549; assay type: cell-based; details: Homo sapiens, A549 cells, 48-72 h
Description: as §1, §2

[3] = system: breast cancer cell line T47D; experiment: MTT cancer cell cytotoxicity assay, T47D; assay type: cell-based, human; details: Homo sapiens, T47D cells, 48-72 h
Description: as §1, §2

[4] = system: liver cancer cell line SMMC7721; experiment: MTT cancer cell cytotoxicity assay, SMMC7721; assay type: cell-based, human; details: Homo sapiens, SMMC-7721, SMMC7721 cells, 48-72 h
Description: as §1, §2

SMILES	IC50 [1] [nM]	IC50 [2] [nM]	IC50 [3] [nM]	IC50 [4] [nM]
COc1ccc(-c2ccc3nnc(-c4ccccc4OC)n3c2)c(C)c1 [Example 8, 6-(4-Methoxy-2-methylphenyl)-3-(2-methoxyphenyl)-[1,2,4]triazolo[4,3-a]pyridine]	55	91	103	24
COc1ccc(-c2ccc3nnc(-c4c(OC)cccc4OC)n3c2)cc1 [Example 61, 3-(2,6-Dimethoxyphenyl)-6-(4-methoxyphenyl)-[1,2,4]triazolo[4,3-a]pyridine]	949	2560	2920	258
COc1ccccc1-c1nnc2ccc(-c3cccc(N)c3)cn12 [Example 45, 6-(3-Aminophenyl)-3-(2-methoxyphenyl)-[1,2,4]triazolo[4,3-a]pyridine hydrochloride]	1250	2930	678	829
CCOc1ccc(-c2ccc3nnc(-c4ccccc4OC)n3c2)cc1C [Example 16, 6-(4-Ethoxy-3-methylphenyl)-3-(2-methoxyphenyl)-[1,2,4]triazolo[4,3-a]pyridine]	107	160	152	33
CCOc1ccccc1-c1nnc2ccc(-c3ccc(OC)cc3)cn12 [Example 74, 3-(2-Ethoxyphenyl)-6-(4-methoxyphenyl)-[1,2,4]triazolo[4,3-a]pyridine]	141	146	151	38
COc1ccccc1-c1nnc2ccc(-c3ccc(C)cc3F)cn12 [Example 4, 6-(2-Fluoro-4-methylphenyl)-3-(2-methoxyphenyl)-[1,2,4]triazolo[4,3-a]pyridine]	246	276	326	80
COc1ccccc1-c1nnc2ccc(-c3ccc(OCc4ccccc4)c(C)c3)cn12 [Example 37, 6-(4-Benzyloxy-3-methylphenyl)-3-(2-methoxyphenyl)-[1,2,4]triazolo[4,3-a]pyridine]	3560	7120	9340	3340
COc1ccc(-c2ccc3nnc(-c4cccnc4Cl)n3c2)cc1 [Example 85, 3-(2-Chloropyridin-3-yl)-6-(4-methoxyphenyl)-[1,2,4]triazolo[4,3-a]pyridine]	3870	> 10000	4340	1890
COc1ccccc1-c1nnc2ccc(-c3ccc(C)c(C)c3)cn12 [Example 32, 6-(3,4-Dimethylphenyl)-3-(2-methoxyphenyl)-[1,2,4]triazolo[4,3-a]pyridine]	83	157	148	39
COc1cc(-c2ccc3nnc(-c4ccccc4OC)n3c2)ccc1O [Example 56, 6-(4-Hydroxy-3-methoxyphenyl)-3-(2-methoxyphenyl)-[1,2,4]triazolo[4,3-a]pyridine]	706	> 10000	1480	1820
COc1ccccc1-c1nnc2ccc(-c3ccc([N+](=O)[O-])c(OC)c3)cn12 [Example 21, 6-(3-Methoxy-4-nitrophenyl)-3-(2-methoxyphenyl)-[1,2,4]triazolo[4,3-a]pyridine]	4250	> 10000	> 10000	> 10000
COc1ccccc1-c1nnc2ccc(-c3cc(OC)c(OC)c(OC)c3)cn12 [Example 29, 3-(2-Methoxyphenyl)-6-(3,4,5-trimethoxyphenyl)-[1,2,4]triazolo[4,3-a]pyridine]	> 10000	> 10000	> 10000	> 10000
COc1ccccc1-c1nnc2ccc(-c3ccc(C)cc3)cn12 [Example 22, 3-(2-Methoxyphenyl)-6-(4-methylphenyl)-[1,2,4]triazolo[4,3-a]pyridine]	224	192	147	51
COc1ccccc1-c1nnc2ccc(-c3cccc(C)c3)cn12 [Example 23, 3-(2-Methoxyphenyl)-6-(3-methylphenyl)-[1,2,4]triazolo[4,3-a]pyridine]	180	215	134	76
COc1ccc(-c2cc(C)c3nnc(-c4ccccc4OC)n3c2)cc1 [Example 55, 3-(2-Methoxyphenyl)-6-(4-methoxyphenyl)-8-methyl-[1,2,4]triazolo[4,3-a]pyridine]	88	122	260	58
COc1cc(-c2ccc3nnc(-c4ccccc4OC)n3c2)ccc1N [Example 43, 6-(4-Amino-3-methoxyphenyl)-3-(2-methoxyphenyl)-[1,2,4]triazolo[4,3-a]pyridine]	1640	> 10000	2250	2200
COc1ccccc1-c1nnc2ccc(-c3ccc(C)c(N)c3)cn12 [Example 44, 6-(3-Amino-4-methylphenyl)-3-(2-methoxyphenyl)-[1,2,4]triazolo[4,3-a]pyridine]	29	54	48	20
COc1ccc(-c2ccc3nnc(-c4cc(OC)ccc4OC)n3c2)cc1 [Example 62, 3-(2,5-Dimethoxyphenyl)-6-(4-methoxyphenyl)-[1,2,4]triazolo[4,3-a]pyridine]	77	142	156	42
COc1ccc(-c2ccc3nnc(-c4ccc(N)cc4OC)n3c2)cc1 [Example 87, 3-(4-Amino-2-methoxyphenyl)-6-(4-methoxyphenyl)-[1,2,4]triazolo[4,3-a]pyridine hydrochloride]	356	711	308	175
COc1ccc(-c2ccc3nnc(-c4ccccc4OC)n3c2)cc1OC [Example 31, 6-(3,4-Dimethoxyphenyl)-3-(2-methoxyphenyl)-[1,2,4]triazolo[4,3-a]pyridine]	474	241	765	492
COc1ccc(-c2ccc3nnc(-c4cc(OC)c(OC)cc4OC)n3c2)cc1 [Example 69, 6-(4-Methoxyphenyl)-3-(2,4,5-trimethoxyphenyl)-[1,2,4]triazolo[4,3-a]pyridine]	915	833	834	307
CNc1ccccc1-c1nnc2ccc(-c3ccc(OC)cc3)cn12 [Example 79, 6-(4-Methoxyphenyl)-3-(2-methylaminophenyl)-[1,2,4]triazolo[4,3-a]pyridine]	122	167	73	69
COc1ccccc1-c1nnc2ccc(-c3ccc4c(c3)OCO4)cn12 [Example 14, 6-(Benzo[d][1,3]dioxol-5-yl)-3-(2-methoxyphenyl)-[1,2,4]triazolo[4,3-a]pyridine]	797	1270	1440	110
COc1ccc(-c2ccc3nnc(-c4cccc(OC)c4)n3c2)cc1 [Example 77, 3-(3-Methoxyphenyl)-6-(4-methoxyphenyl)-[1,2,4]triazolo[4,3-a]pyridine]	2210	4880	1950	962
COc1ccccc1-c1nnc2ccc(-c3ccc(C)cc3C)cn12 [Example 25, 6-(2,4-Dimethylphenyl)-3-(2-methoxyphenyl)-[1,2,4]triazolo[4,3-a]pyridine]	724	725	415	114
COc1ccc(-c2ccc3nnc(-c4cccc(OC)c4OC)n3c2)cc1 [Example 73, 3-(2,3-Dimethoxyphenyl)-6-(4-methoxyphenyl)-[1,2,4]triazolo[4,3-a]pyridine]	2350	> 10000	5320	3210
COc1ccccc1-c1nnc2ccc(-c3cccc(O)c3)cn12 [Example 12, 6-(3-Hydroxyphenyl)-3-(2-methoxyphenyl)-[1,2,4]triazolo[4,3-a]pyridine]	2950	7180	> 10000	> 10000
